# Source: article PMC4259467, “Molecular Cloning, Characterization and Positively Selected Sites of the Glutathione S-Transferase Family from Locusta migratoria” (PLoS ONE, 2014)
# Legend:
# Experiment in all cases: spectrophotometric GST assay, steady state
# Format in all cases: biochemical
# Conditions in all cases: co-substrate GSH; pH and temperature not given; read-out: K m ^CDNB
# [1] = target: T1, LmGSTO2 (Locusta migratoria, UniProt I3QKS2)
# T1 construct: gene GSTo2; full-length ORF in pET28a, E. coli BL21(DE3), His-tag Ni-NTA purified
# T1 sequence (I3QKS2 1-245): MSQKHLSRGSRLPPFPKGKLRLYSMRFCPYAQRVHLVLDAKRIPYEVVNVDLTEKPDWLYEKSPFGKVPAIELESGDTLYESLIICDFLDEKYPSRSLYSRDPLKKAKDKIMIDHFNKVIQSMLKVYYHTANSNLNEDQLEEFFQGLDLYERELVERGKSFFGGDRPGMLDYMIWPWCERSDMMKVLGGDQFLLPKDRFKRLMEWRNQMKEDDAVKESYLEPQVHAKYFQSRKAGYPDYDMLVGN
# From the text: spectrophotometric GST assay, steady state on LmGSTO2
# [2] = target: T2, LmGSTZ1 (Locusta migratoria, UniProt V9Q4A6)
# T2 construct: gene GSTz1; full-length ORF in pET28a, E. coli BL21(DE3), His-tag Ni-NTA purified
# T2 sequence (V9Q4A6 1-217): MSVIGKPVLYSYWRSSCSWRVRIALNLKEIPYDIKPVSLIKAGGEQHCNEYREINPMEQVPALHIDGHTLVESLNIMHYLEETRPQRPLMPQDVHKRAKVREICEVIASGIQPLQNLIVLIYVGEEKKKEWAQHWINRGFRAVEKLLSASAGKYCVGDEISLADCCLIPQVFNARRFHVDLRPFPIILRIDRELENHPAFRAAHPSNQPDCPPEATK
# From the text: spectrophotometric GST assay, steady state on LmGSTZ1
# [3] = target: T3, LmGSTO3 (Locusta migratoria, UniProt V9Q2Q7)
# T3 construct: gene GSTo3; full-length ORF in pET28a, E. coli BL21(DE3), His-tag Ni-NTA purified
# T3 sequence (V9Q2Q7 1-241): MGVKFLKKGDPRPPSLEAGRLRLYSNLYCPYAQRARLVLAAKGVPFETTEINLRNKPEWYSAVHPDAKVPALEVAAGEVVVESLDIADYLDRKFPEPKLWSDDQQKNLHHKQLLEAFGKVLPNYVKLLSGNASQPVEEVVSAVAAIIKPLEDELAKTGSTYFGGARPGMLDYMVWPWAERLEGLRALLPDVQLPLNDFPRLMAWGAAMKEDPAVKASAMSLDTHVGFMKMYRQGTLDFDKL
# From the text: spectrophotometric GST assay, steady state on LmGSTO3
# [4] = target: T4, LmGSTE1 (Locusta migratoria, UniProt V9Q4G7)
# T4 construct: gene GSTe1; full-length ORF in pET28a, E. coli BL21(DE3), His-tag Ni-NTA purified
# T4 sequence (V9Q4G7 1-222): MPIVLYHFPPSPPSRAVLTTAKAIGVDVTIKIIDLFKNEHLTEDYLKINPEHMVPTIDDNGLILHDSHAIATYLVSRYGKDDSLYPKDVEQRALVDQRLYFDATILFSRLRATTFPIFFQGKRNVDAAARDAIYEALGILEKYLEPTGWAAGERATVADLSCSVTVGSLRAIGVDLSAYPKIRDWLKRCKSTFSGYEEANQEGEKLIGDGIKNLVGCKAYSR
# From the text: spectrophotometric GST assay, steady state on LmGSTE1
# [5] = target: T5, LmGSTS5 (Locusta migratoria, UniProt F4YUJ4)
# T5 construct: full-length ORF in pET28a, E. coli BL21(DE3), His-tag Ni-NTA purified
# T5 sequence (F4YUJ4 1-202): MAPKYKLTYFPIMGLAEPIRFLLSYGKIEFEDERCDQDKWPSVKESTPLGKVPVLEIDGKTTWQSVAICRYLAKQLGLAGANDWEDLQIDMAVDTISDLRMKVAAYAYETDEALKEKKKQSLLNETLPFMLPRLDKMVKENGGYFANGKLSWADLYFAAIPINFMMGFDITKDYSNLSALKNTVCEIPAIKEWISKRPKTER
# From the text: spectrophotometric GST assay, steady state on LmGSTS5
# [6] = target: T6, LmGSTO1 (Locusta migratoria, UniProt V9Q3Y6)
# T6 construct: gene GSTo1; full-length ORF in pET28a, E. coli BL21(DE3), His-tag Ni-NTA purified
# T6 sequence (V9Q3Y6 1-242): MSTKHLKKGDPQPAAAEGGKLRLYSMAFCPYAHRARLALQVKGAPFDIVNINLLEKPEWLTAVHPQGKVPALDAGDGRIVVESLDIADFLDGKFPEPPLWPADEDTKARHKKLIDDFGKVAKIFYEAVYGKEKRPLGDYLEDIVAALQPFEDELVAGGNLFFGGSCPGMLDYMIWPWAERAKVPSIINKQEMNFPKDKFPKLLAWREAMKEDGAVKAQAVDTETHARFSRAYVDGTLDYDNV
# From the text: spectrophotometric GST assay, steady state on LmGSTO1
# [7] = target: T7, LmGSTD3 (Locusta migratoria, UniProt V9Q4H6)
# T7 construct: gene GSTd3; full-length ORF in pET28a, E. coli BL21(DE3), His-tag Ni-NTA purified
# T7 sequence (V9Q4H6 1-222): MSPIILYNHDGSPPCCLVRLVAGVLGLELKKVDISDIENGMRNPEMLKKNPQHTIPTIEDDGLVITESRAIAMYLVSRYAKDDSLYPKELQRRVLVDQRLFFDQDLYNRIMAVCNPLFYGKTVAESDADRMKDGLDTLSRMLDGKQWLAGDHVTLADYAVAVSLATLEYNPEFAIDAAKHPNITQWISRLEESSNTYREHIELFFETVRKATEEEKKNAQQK
# From the text: spectrophotometric GST assay, steady state on LmGSTD3
# [8] = target: T8, LmGSTS7 (Locusta migratoria, UniProt F4YUJ6)
# T8 construct: full-length ORF in pET28a, E. coli BL21(DE3), His-tag Ni-NTA purified
# T8 sequence (F4YUJ6 1-204): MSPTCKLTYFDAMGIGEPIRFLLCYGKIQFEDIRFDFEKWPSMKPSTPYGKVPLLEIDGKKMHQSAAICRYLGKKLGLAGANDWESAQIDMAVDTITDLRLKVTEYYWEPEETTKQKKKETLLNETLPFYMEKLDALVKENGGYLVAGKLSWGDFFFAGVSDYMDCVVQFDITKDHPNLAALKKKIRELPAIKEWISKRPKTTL
# From the text: spectrophotometric GST assay, steady state on LmGSTS7
smiles,measurement,setting,value
O=[N+]([O-])c1ccc(Cl)c([N+](=O)[O-])c1 [CDNB],Km,[1],841 ± 138 µM
same,Km,[2],452 ± 58 µM
same,Km,[3],216 ± 4 µM
same,Km,[4],7 ± 1 µM
same,Km,[5],253 ± 26 µM
same,Km,[6],228 ± 45 µM
same,Km,[7],102 ± 10 µM
same,Km,[8],46 ± 1 µM
